Experimental data published in patent US6570018B2 (Pfizer Inc, priority 2000, dated 2003).
Where a name gives a salt, the structure may show the parent alone.

Assays:
[1] = stability of crystalline form versus the anhydrous mesylate salt; type: physicochemical; conditions: compared with the anhydrous mesylate salt

| melting point | Compound | stability of crystalline form / shelf life [1] |
| --- | --- | --- |
| 102.5 to 103.8 °C | C[C@@H](C(=O)c1ccc(OCc2ccccc2)cc1)N1CCC(O)(c2ccccc2)CC1 |  |
|  | C[C@@H]([C@@H](O)c1ccc(O)cc1)N1CCC(O)(c2ccccc2)CC1 [mesylate salt trihydrate, (1S,2S)-1-(4-Hydroxyphenyl)-2-(4-hydroxy-4-phenylpiperidino)-1-propanol, Methanesulfonate Salt Trihydrate] | more stable crystalline form than the anhydrous mesylate salt |
